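Following 48 hours of exposure in 96-well plates, responses at five concentrations were used to interpolate endpoints linearly. GI50: concentration for 50% inhibition of growth.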 Activity calls are given as the source filed them. No stated cut-off is given here; in the data, active = GI50 up to about 1.1 µM and inactive = higher.
What was measured:
Test in all cases: DTP human tumour cell line panel, 48 h
[1] = test system: UO-31
[2] = test system: MOLT-4
[3] = test system: RXF 631
[4] = test system: OVCAR-5
[5] = test system: CAKI-1
[6] = test system: HL-60
[7] = test system: HCT-15
[8] = test system: LXFL 529
[9] = test system: SK-MEL-2
[10] = test system: SR
[11] = test system: SNB-78
[12] = test system: NCI-H522
[13] = test system: COLO 205
[14] = test system: RXF 393
[15] = test system: SK-MEL-28
[16] = test system: OVCAR-4
[17] = test system: SK-OV-3
[18] = test system: UACC-62
[19] = test system: SNB-19
[20] = test system: 786-0
[21] = test system: ACHN
[22] = test system: SF-539
[23] = test system: SW-620
[24] = test system: M14
[25] = test system: M19-MEL
[26] = test system: DMS-114
[27] = test system: IGROV-1
[28] = test system: LOX IMVI
[29] = test system: DLD-1
[30] = test system: OVCAR-8
[31] = test system: SN12C
[32] = test system: A498
[33] = test system: XF498
[34] = test system: NCI-H460
[35] = test system: HOP-18
[36] = test system: K562
[37] = test system: HOP-62
[38] = test system: HCT-116
[39] = test system: NCI-H23
[40] = test system: UACC-257
[41] = test system: CCRF-CEM
[42] = test system: SK-MEL-5
[43] = test system: HT-29
[44] = test system: EKVX
[45] = test system: HOP-92
[46] = test system: SF-295
[47] = test system: KM12
[48] = test system: U-251
[49] = test system: SF-268
[50] = test system: SNB-75
[51] = test system: Malme-3M
[52] = test system: HCC 2998
[53] = test system: KM-20L2
[54] = test system: A549
[55] = test system: RPMI-8226
[56] = test system: NCI-H226
[57] = test system: OVCAR-3
[58] = test system: TK-10

Structure (SMILES): O=C(NOC(=O)c1ccc([N+](=O)[O-])cc1)c1ccc(Cl)cc1
- GI50 [1]: 23.8 µM (inactive)
- GI50 [2]: 20.4 µM (inactive)
- GI50 [3]: > 100 µM (inactive)
- GI50 [4]: > 100 µM (inactive)
- GI50 [5]: 39.6 µM (inactive)
- GI50 [6]: 15.8 µM (inactive)
- GI50 [7]: 35.7 µM
- GI50 [8]: 17.9 µM (inactive)
- GI50 [9]: > 100 µM (inactive)
- GI50 [10]: > 100 µM (inactive)
- GI50 [11]: 16.6 µM (inactive)
- GI50 [12]: 27 µM (inactive)
- GI50 [13]: > 100 µM (inactive)
- GI50 [14]: 87.1 µM (inactive)
- GI50 [15]: > 100 µM (inactive)
- GI50 [16]: 88.9 µM (inactive)
- GI50 [17]: > 100 µM (inactive)
- GI50 [18]: 36.2 µM (inactive)
- GI50 [19]: > 100 µM (inactive)
- GI50 [20]: 54.6 µM (inactive)
- GI50 [21]: 37.6 µM (inactive)
- GI50 [22]: > 100 µM (inactive)
- GI50 [23]: 38 µM (inactive)
- GI50 [24]: > 100 µM (inactive)
- GI50 [25]: > 100 µM (inactive)
- GI50 [26]: 44.5 µM (inactive)
- GI50 [27]: 21.4 µM (inactive)
- GI50 [28]: 6.87 µM (inactive)
- GI50 [29]: 38.7 µM (inactive)
- GI50 [30]: 98.6 µM (inactive)
- GI50 [31]: 62.4 µM (inactive)
- GI50 [32]: > 100 µM (inactive)
- GI50 [33]: 85.9 µM (inactive)
- GI50 [34]: > 100 µM (inactive)
- GI50 [35]: 2.9 µM (inactive)
- GI50 [36]: 21.6 µM (inactive)
- GI50 [37]: > 100 µM (inactive)
- GI50 [38]: > 100 µM (inactive)
- GI50 [39]: > 100 µM (inactive)
- GI50 [40]: > 100 µM (inactive)
- GI50 [41]: 28.2 µM (inactive)
- GI50 [42]: 65.2 µM (inactive)
- GI50 [43]: > 100 µM (inactive)
- GI50 [44]: > 100 µM (inactive)
- GI50 [45]: 27.4 µM (inactive)
- GI50 [46]: > 100 µM (inactive)
- GI50 [47]: > 100 µM (inactive)
- GI50 [48]: 76.7 µM (inactive)
- GI50 [49]: > 100 µM (inactive)
- GI50 [50]: 15 µM (inactive)
- GI50 [51]: > 100 µM (inactive)
- GI50 [52]: > 100 µM (inactive)
- GI50 [53]: 97.1 µM (inactive)
- GI50 [54]: > 100 µM (inactive)
- GI50 [55]: 65.2 µM (inactive)

Structure (SMILES): COC(=O)C(=O)C(C(=O)C(=O)Nc1ccc(F)cc1)c1nc2ccc([N+](=O)[O-])cc2nc1O (stereo not drawn)
- GI50 [1]: > 100 µM (inactive)
- GI50 [3]: > 100 µM (inactive)
- GI50 [4]: > 100 µM (inactive)
- GI50 [56]: > 100 µM (inactive)
- GI50 [5]: > 100 µM (inactive)
- GI50 [6]: > 100 µM (inactive)
- GI50 [7]: > 100 µM
- GI50 [8]: > 100 µM (inactive)
- GI50 [10]: > 100 µM (inactive)
- GI50 [11]: > 100 µM (inactive)
- GI50 [12]: > 100 µM (inactive)
- GI50 [13]: > 100 µM (inactive)
- GI50 [14]: > 100 µM (inactive)
- GI50 [15]: > 100 µM (inactive)
- GI50 [16]: > 100 µM (inactive)
- GI50 [17]: > 100 µM (inactive)
- GI50 [19]: > 100 µM (inactive)
- GI50 [20]: > 100 µM (inactive)
- GI50 [22]: > 100 µM (inactive)
- GI50 [23]: > 100 µM (inactive)
- GI50 [24]: > 100 µM (inactive)
- GI50 [25]: > 100 µM (inactive)
- GI50 [27]: > 100 µM (inactive)
- GI50 [28]: > 100 µM (inactive)
- GI50 [29]: > 100 µM (inactive)
- GI50 [30]: > 100 µM (inactive)
- GI50 [31]: > 100 µM (inactive)
- GI50 [32]: > 100 µM (inactive)
- GI50 [33]: > 100 µM (inactive)
- GI50 [34]: > 100 µM (inactive)
- GI50 [35]: > 100 µM (inactive)
- GI50 [36]: > 100 µM (inactive)
- GI50 [37]: > 100 µM (inactive)
- GI50 [38]: > 100 µM (inactive)
- GI50 [39]: > 100 µM (inactive)
- GI50 [40]: > 100 µM (inactive)
- GI50 [41]: > 100 µM (inactive)
- GI50 [42]: > 100 µM (inactive)
- GI50 [43]: > 100 µM (inactive)
- GI50 [44]: > 100 µM (inactive)
- GI50 [45]: > 100 µM (inactive)
- GI50 [46]: > 100 µM (inactive)
- GI50 [47]: > 100 µM (inactive)
- GI50 [48]: > 100 µM (inactive)
- GI50 [49]: > 100 µM (inactive)
- GI50 [50]: > 100 µM (inactive)
- GI50 [51]: > 100 µM (inactive)
- GI50 [52]: > 100 µM (inactive)
- GI50 [57]: > 100 µM (inactive)
- GI50 [53]: > 100 µM (inactive)
- GI50 [54]: > 100 µM (inactive)
- GI50 [55]: > 100 µM (inactive)
- GI50 [58]: > 100 µM (inactive)

Source: ChEMBL document CHEMBL1201862, “PubChem BioAssay data set” (2004)
